According to publication PMC11494886, “Discovery and design of molecular glue enhancers of CDK12–DDB1 interactions for targeted degradation of cyclin K” (RSC Chemical Biology, 2024):

Assays:
Cdk12/CycK and DDB1ΔB = target: T1, Cdk12/CycK and DDB1ΔB (Homo sapiens, UniProt Q16531+Q9NYV4, DEL396-705); assay: Analytical size-exclusion chromatography of DDB1ΔB and Cdk12/CycK; type: binding; settings: 20 μM proteins, 60 μM compound, vs DMSO and THZ531
T1 construct: the Cdk12 (714–1063)/CycK (1–267) complex and the DDB1ΔB protein; made in house; host or cells: Sf9 insect cells (MultiBacTurbo)
Description: Analytical size-exclusion chromatography was employed to investigate compound-induced protein–protein interactions between the heterodimeric Cdk12 (714–1063)/CycK (1–267) complex and the RING E3 ligase-associated adaptor protein DDB1ΔB. The analysis was conducted on an Agilent 1260 Infinity II HPLC system (Agilent Technologies), coupled with a Superdex 200 Increase 3.2/300 column (Cytiva), pre-equilibrated in Cdk12 SEC buffer (20 mM Hepes pH 7.8, 400 mM NaCl, 1 mM TCEP) supplemented with 1 g L^−1 carboxymethyl-dextran. Purified proteins, combined in equimolar ratios (20 μM Cdk12/CycK and DDB1ΔB, respectively) were supplemented with 3-fold molar excess of small molecular compounds. The resulting protein mixtures were diluted to a final volume of 25 μL using the kinases SEC-buffer ensuring a final DMSO concentration of 2%, followed by an incubation period of 10 min. Upon injection into the analytical system, the chromatography was conducted at a controlled flow rate of 0.05 mL min^−1, with protein absorbance monitored at 280 nm wavelength. Peak fractions were collected drop by drop and subsequently subjected to analysis via dynamic light scattering (DLS) to assess their size distribution, along with SDS-PAGE analysis to determine the composition of the protein complex.

HiBiT-tagged cyclin K = assay: HiBiT cyclin K degradation assay (DC50, Dmax); type: cell-based; settings: HiBiT-CCNK KI A549 cells, 2 hours
Description: Next, we utilized HiBiT technology (Promega) for quantitative analysis of cyclin K degrader activity. […] Importantly, knockout of CDK12 using CRISPR/Cas9 protected cyclin K from SR-4835-induced degradation (Fig. 1D). We verified the depletion of CDK12 in HEK-293T cells (Fig. S3, ESI ^†).
The HiBiT-CCNK KI A549 cells (Promega) were seeded in 384 well plate and treated with the test compounds for 2 hours in a dose dependent manner. Nano-Glo® HiBiT Lytic Detection System (Promega) composed of the Nano-Glo® HiBiT Lytic Substrate, Nano-Glo® HiBiT Lytic Buffer and LgBiT Protein was used as per the manufacturer's instructions. Briefly, a 2× Nano-Glo® HiBiT Lytic Detection Reagent mixture was prepared by adding 20 μL of Nano-Glo® HiBiT Lytic Substrate and 10 μL of LgBiT protein per every 1 mL of Nano-Glo® HiBiT Lytic Buffer. After incubating the cells with the 2× Nano-Glo® HiBiT Lytic Detection Reagent mixture, luminescence was measured. HiBiT tagged cyclin K present at any given concentration was measured by normalizing the luminescence signal at that concentration to the luminescence signal from the DMSO (control) cells. The concentration necessary to achieve a 50% reduction in cyclin K levels (DC50) and the maximum achievable reduction in cyclin K levels (Dmax) was computed from this assay.

cyclin K = assay: Immunoblot of cyclin K levels in MDA-MB-231 cells; type: cell-based, human; settings: SR-4835 500 nM, SR-4784 1-2 μM 2 hours, SR-4784-PAP 2 μM 2 hours
Description: THZ531 was used as a negative control as it is known to make a covalent bond with Cys1039 in a C-terminal extension of the kinase domain, thereby preventing this helix-loop-helix (HLH)-like fold from binding in a cleft between the DDB1 BPA and BPC domains (Fig. 1B, right panels). […] An immunofluorescence-based assay developed for visualizing loss of nuclear cyclin K also confirmed the above observations (Fig. 1H and Fig. S1, ESI ^†).
Total cell lysates were prepared using RIPA lysis buffer (Millipore Sigma) supplemented with protease and phosphatase inhibitors (Roche). Protein concentrations were estimated using the BCA protein assay kit (Pierce, Thermo Fisher Scientific). Equal amounts of proteins were separated using NuPAGE 4–12% Bis-Tris gels (Thermo Fisher Scientific). For CLICK chemistry pulldown experiments, proteins in the eluates were resolved using 3–8% Tris–acetate gels (Thermo Fisher Scientific). Proteins were transferred to nitrocellulose membranes using NuPAGE transfer buffer (Thermo Fisher Scientific). Membranes were blocked in LI-COR blocking buffer for 1 hour at room temperature and then probed with primary antibodies diluted in the same blocking buffer overnight at 4 °C. To detect the primary antibodies, membranes were incubated with IR-680 or IR-800 conjugated secondary antibodies (LI-COR) diluted in LI-COR blocking buffer at room temperature for 1 hour. Washes with 0.01% Tween-phosphate buffer were performed after primary and secondary antibody incubation steps. Signals from the membrane were recorded by scanning on a LI-COR Odyssey imager. Bands were quantified using Image Studio Lite (LI-COR Biosciences) or the ImageJ program.
To visualize the degradation of cyclin K, total cell lysates were subjected to SDS-PAGE and western blotting.

T1 sequence (Q9NYV4 714-1063, stated change not applied): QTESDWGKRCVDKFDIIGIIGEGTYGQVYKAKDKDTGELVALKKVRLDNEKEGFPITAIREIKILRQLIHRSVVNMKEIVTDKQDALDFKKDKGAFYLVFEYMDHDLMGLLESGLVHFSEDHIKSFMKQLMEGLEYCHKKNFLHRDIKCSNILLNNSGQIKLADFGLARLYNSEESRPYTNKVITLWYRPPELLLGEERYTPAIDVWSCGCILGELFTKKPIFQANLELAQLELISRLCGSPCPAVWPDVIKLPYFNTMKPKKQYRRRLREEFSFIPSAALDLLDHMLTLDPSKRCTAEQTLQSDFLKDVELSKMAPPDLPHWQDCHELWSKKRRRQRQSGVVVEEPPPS
T1 sequence (O75909 1-267 partner limits assumed): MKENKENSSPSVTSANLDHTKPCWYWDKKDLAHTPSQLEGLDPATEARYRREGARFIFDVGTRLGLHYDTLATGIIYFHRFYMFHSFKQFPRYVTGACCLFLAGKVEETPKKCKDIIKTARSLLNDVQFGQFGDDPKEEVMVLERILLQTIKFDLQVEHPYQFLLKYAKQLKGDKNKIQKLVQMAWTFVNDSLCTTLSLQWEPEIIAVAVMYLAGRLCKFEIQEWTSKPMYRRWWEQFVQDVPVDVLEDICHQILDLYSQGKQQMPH
T1 sequence (Q16531 with tags, fused parts or gaps DEL396-705): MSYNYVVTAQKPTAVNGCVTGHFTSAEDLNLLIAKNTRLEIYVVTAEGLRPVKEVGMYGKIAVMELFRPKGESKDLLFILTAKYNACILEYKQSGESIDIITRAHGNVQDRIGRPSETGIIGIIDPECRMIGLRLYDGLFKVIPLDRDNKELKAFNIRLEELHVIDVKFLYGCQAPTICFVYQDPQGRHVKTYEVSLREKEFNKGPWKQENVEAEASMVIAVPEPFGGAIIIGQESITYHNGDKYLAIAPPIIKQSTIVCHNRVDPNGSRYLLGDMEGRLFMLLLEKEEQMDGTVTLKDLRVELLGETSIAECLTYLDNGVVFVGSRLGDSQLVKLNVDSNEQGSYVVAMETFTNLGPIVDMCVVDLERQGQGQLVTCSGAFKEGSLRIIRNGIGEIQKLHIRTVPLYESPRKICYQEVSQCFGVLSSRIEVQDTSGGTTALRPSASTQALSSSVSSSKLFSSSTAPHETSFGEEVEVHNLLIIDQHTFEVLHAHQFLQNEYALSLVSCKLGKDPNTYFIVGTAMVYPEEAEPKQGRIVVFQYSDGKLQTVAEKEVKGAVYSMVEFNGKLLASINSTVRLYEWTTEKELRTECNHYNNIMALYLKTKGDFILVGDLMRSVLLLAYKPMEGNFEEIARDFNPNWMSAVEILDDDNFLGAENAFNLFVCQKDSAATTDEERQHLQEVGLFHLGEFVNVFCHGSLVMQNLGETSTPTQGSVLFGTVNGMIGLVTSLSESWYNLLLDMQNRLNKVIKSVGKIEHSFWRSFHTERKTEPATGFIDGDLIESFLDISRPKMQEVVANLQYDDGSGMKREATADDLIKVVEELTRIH

SMILES | retention time in analytical SEC (ternary complex formation) (Cdk12/CycK and DDB1ΔB) | Dmax (maximum reduction in cyclin K levels) (HiBiT-tagged cyclin K; vs DMSO) [%] | DC50 (HiBiT-tagged cyclin K; read-out: DC50 (concentration for 50% reduction in cyclin K levels)) [nM] | cyclin K degradation (immunoblot) (cyclin K) | reduction in cyclin K levels (HiBiT-tagged cyclin K; dose-response)
Cn1cc(-n2cnc3c(NCc4nc5cc(Cl)c(Cl)cc5[nH]4)nc(N4CCOCC4)nc32)cn1 [SR-4835] | reduced retention times | > 95 | ~90 | rapidly degrades cyclin K | –
CN(C)C/C=C/C(=O)Nc1ccc(C(=O)N2CCC[C@@H](Nc3ncc(Cl)c(-c4c[nH]c5ccccc45)n3)C2)cc1 [THZ531, reference compound] | – | – | – | – | no reduction in cyclin K levels
